# Assays:
# Assay type in all cases: in vivo
# [1] = system: Musca domestica Linnaeus adult houseflies; experiment: Needle inoculum (direct application) on adult flies
# Protocol: (§1) The Solution may be poured into a container having a spray nozzle or provided in an aerosol container. Alternatively, the Solution may be poured into an open container for direct contact. The Solution may be poured directly onto pupa or sprayed. Several experiments were performed on Musca domestica Linnaeus adult houseflies, pupa, and larva using varying dilutions, concentrations, and combinations of components, along with a dihydrogen monoxide control to compare the effectiveness and potency of each composition for quickly killing adult flies, pupa, and larva. […] During experimentation, a needle inoculum (syringe) having a modified composition for adult flies, a spray inoculum having the modified composition for adult flies, and a dihydrogen monoxide control for adult flies were conducted. References to “needle inoculum” refers to directly applying the modified composition to the adult flies.
# [2] = system: Musca domestica Linnaeus adult houseflies; experiment: Spray inoculum on adult flies; details: 75° F.
# Protocol: as §1
# [3] = system: Musca domestica Linnaeus house fly; experiment: Fly killing, general statements (application not specified); details: for independent house fly adulticidal properties of the individual component: individual formula component
# Source text: The concentrations, formulas, and composition noted herein have been evaluated and tested for optimal effect against adult houseflies and pupa. Altering the preferred concentrations would decrease the effectiveness of the inventive Solution, leading to longer a time period before the flies and/or pupa are killed. The Solution may be poured into a container having a spray nozzle or provided in an aerosol container. Alternatively, the Solution may be poured into an open container for direct contact. The Solution may be poured directly onto pupa or sprayed. Several experiments were performed on Musca domestica Linnaeus adult houseflies, pupa, and larva using varying dilutions, concentrations, and combinations of components, along with a dihydrogen monoxide control to compare the effectiveness and potency of each composition for quickly killing adult flies, pupa, and larva. […] These minimal moments of delay between contact and expiration prevents the fly from falling and immediately dying in an undesired location, for example, on a food surface. […] The user can either wait for the fly to die solely from the spray, or, alternatively, the user can implement using the spray as one of the first steps for disabling the fly before immediately killing the fly with either more application of the sprayable composition or with another aid, for example, a fly swatter.
# The invention, when sprayed on fly pupa, prevents the pupa from hatching. The preferred type of fly and fly pupa that are effectively killed by this Solution are Musca domestica Linnaeus houseflies. Because the composition (or Solution) is nontoxic, nonabrasive, and ingestible for humans, the Solution can be sprayed or applied directly to a surface, including food. Various experiments were conducted to evaluate the efficacy of each component used in the Solution.
# [4] = needle inoculum, 50% dilution with water, 75° F.
# [5] = needle inoculum, 75% dilution with water, 75° F., 30 minutes
# [6] = needle inoculum, 75% dilution with water, 75° F.
# [7] = needle inoculum, 90% dilution with water, 75° F., 30 minutes
# [8] = needle inoculum, 90% dilution with water, 75° F.
# [9] = needle inoculum, no (0%) dilution, 75° F.
# [10] = 90% dilution with water, 30 minutes
# [11] = printed 50% dilution, in the figure of the 75% dilution experiment
# [12] = needle inoculum, 0% (no) dilution, 75° F., time in E2/E3
# [13] = needle inoculum, 50% dilution with water, 75° F., time in E5/E6
# [14] = 50% dilution with water, time in E36/E37
# [15] = FIG. 30, 50% dilution, same temperature (75° F.)
# [16] = FIG. 30, needle inoculum as printed, 0% dilution of 10 mg/mL, 75° F.
compound,measurement,setting,value
OCC(O)CO [glycerin],flight ability during the observation time,[1]; [4],incapable of flight
same,deaths of adult flies within 30 minutes,[1]; [4],5 out of 10
same,flight ability during the observation time,[1]; [5],incapable of flight
same,deaths of adult flies within 30 minutes,[1]; [6],4 out of 10
same,flight ability during the observation time,[1]; [7],incapable of flight
same,deaths of adult flies within 30 minutes,[1]; [8],2 out of 10
same,flight ability during the observation time,[1]; [9],incapable of flight
same,deaths of adult flies within 30 minutes,[1]; [9],0 out of 10
same,flight ability during the observation time,"[2]; 50% dilution, 30 minutes",incapable of flight
same,deaths of adult flies within 30 minutes,[2]; 50% dilution,6 out of 10
same,flight ability during the observation time,[2]; [10],incapable of flight
same,deaths of adult flies within 30 minutes,[2]; 90% dilution with water,7 out of 10
same,flight ability during the observation time,[2]; no dilution,incapable of flight
same,deaths of adult flies within 30 minutes,[2]; no dilution,0 out of 10
same,flight ability during the observation time,"[2]; printed 50% dilution, in the figure of the 75% dilution experiment, 30 minutes",incapable of flight
same,deaths of adult flies within 30 minutes,[2]; [11],6 out of 10
same,independent house fly adulticidal properties of the individual component,[3],exhibit varying house fly adulticidal properties
CCO [ethyl alcohol],deaths of adult flies,[1]; [12],10 out of 10
same,flight ability during the observation time,[1]; [4],incapable of flight
same,deaths of adult flies,[1]; [13],10 out of 10
same,flight ability during the observation time,[1]; [5],incapable of flight
same,deaths of adult flies within 30 minutes,[1]; [6],1 out of 10
same,flight ability during the observation time,[1]; [7],incapable of flight
same,deaths of adult flies within 30 minutes,[1]; [8],0 out of 10
same,deaths of adult flies,[2]; [14],10 out of 10
same,flight ability during the observation time,"[2]; 75% dilution with water, 30 minutes",incapable of flight
same,deaths of adult flies within 30 minutes,[2]; 75% dilution with water,4 out of 10
same,flight ability during the observation time,[2]; [10],incapable of flight
same,deaths of adult flies within 30 minutes,[2]; 90% dilution with water,1 out of 10
same,flight ability during the observation time,[2]; no dilution,incapable of flight
same,deaths of adult flies,"[2]; no dilution, time in E33/E34",10 out of 10
CCCCC(CC)COC(=O)CC(C(=O)OCC(CC)CCCC)S(=O)(=O)[O-].[Na+] (centres unmarked) [dioctyl sodium sulfosuccinate],deaths of adult flies,[1]; [15],10 out of 10
same,time within which the deaths occurred,[1]; [15],≤ 46 s
same,deaths of adult flies,"[1]; FIG. 30, 90% dilution",10 out of 10
same,time within which the deaths occurred,"[1]; FIG. 30, 90% dilution",≤ 188 s
same,deaths of adult flies,[1]; [16],10 out of 10
same,time within which the deaths occurred,[1]; [16],≤ 36 s
same,time within which flies are immobilized and collapse,[3]; flies,30 to 60 s
"CCCCC(CC)COC(=O)CC(C(=O)OCC(CC)CCCC)S(=O)(=O)[O-].[Na+] (centres unmarked) [docusate, docusate sodium]",deaths of adult flies,[1]; [12],10 out of 10
same,time within which the deaths occurred,"[1]; needle inoculum, 0% dilution, 75° F.",≤ 48 s
same,time within which the deaths occurred,[1]; [4],≤ 56 s
same,deaths of adult flies,[1]; [13],10 out of 10
same,time within which the deaths occurred,[1]; [6],≤ 126 s
same,deaths of adult flies,"[1]; needle inoculum, 75% dilution with water, 75° F., time in E8/E9",10 out of 10
same,time within which the deaths occurred,[1]; [8],≤ 121 s
same,deaths of adult flies,"[1]; needle inoculum, 90% dilution with water, 75° F., time in E11",10 out of 10
same,deaths of adult flies,"[1]; needle inoculum, 95% dilution with water, 75° F., time in E13",10 out of 10
same,deaths of adult flies,"[1]; needle inoculum, 99% dilution with water, 75° F., time in E15",10 out of 10
same,time within which the deaths occurred,[2]; 50% dilution with water,≤ 43 s
same,deaths of adult flies,[2]; [14],10 out of 10
same,time within which the deaths occurred,[2]; 90% dilution with water,≤ 143 s
same,deaths of adult flies,"[2]; 90% dilution with water, time in E42/E43",10 out of 10
same,deaths of adult flies,"[2]; 95% dilution with water, time in E45",10 out of 10
same,deaths of adult flies,"[2]; 99% dilution with water, time in E47",10 out of 10
same,time within which the deaths occurred,[2]; no dilution,≤ 68 s
same,deaths of adult flies,"[2]; no dilution, time in E33/E34",10 out of 10
same,time within which the deaths occurred,[2]; [11],≤ 89 s
same,deaths of adult flies,"[2]; printed 50% dilution, in the figure of the 75% dilution experiment, time in E39/E40",10 out of 10
same,independent house fly adulticidal properties of the individual component,[3],exhibit varying house fly adulticidal properties

# From patent US11058113B1, “Fly and pupa insecticide” (Fly's Water, LLC, priority 2018, dated 2021)
